Results from patent US7122526B2, “Indolocarbazole anticancer agents and methods of using same” (Nanosphere, Inc., priority 2000, dated 2006).

Tests used:
Human Topoisomerase I = molecular target: T1, Human Topoisomerase I (Homo sapiens, UniProt P11387); assay: Topoisomerase I assay (pHOT1 supercoiled DNA, agarose gel); format: biochemical; conditions: supercoiled DNA band density, 37° C., 30 minutes; read-out: Poisoning of Human Topoisomerase I IC50
T1 sequence (P11387 1-765): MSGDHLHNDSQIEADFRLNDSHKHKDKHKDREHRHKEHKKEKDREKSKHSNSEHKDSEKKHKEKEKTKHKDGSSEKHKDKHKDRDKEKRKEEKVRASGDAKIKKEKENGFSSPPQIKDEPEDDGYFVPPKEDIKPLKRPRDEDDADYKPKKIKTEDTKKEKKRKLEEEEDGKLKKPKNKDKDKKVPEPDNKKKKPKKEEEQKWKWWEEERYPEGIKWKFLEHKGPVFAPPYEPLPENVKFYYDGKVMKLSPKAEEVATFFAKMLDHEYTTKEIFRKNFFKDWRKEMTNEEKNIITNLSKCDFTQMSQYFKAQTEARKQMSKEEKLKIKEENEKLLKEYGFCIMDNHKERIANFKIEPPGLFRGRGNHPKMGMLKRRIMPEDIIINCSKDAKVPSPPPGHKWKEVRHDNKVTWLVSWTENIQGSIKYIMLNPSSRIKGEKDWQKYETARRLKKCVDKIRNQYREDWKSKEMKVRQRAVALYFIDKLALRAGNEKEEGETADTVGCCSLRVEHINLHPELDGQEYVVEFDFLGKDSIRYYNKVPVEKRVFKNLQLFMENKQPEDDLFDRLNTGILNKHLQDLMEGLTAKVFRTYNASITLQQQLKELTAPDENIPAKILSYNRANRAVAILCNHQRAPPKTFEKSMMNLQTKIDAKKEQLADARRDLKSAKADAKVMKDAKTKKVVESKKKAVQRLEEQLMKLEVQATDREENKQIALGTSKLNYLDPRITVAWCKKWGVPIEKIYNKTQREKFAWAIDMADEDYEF
Method: a.) Topoisomerase I assay. Reaction buffer (10.3 μL H2O, 2.0 μL 10×buffer, 1.5 μL […] MgCl2, and 3.2 μL 500 mM KCl) was prepared and kept on ice. 10×Buffer was prepared by mixing 2 mL 2M Tris pH 7.5, 15.3 μL 10% DTT, 100 μL 0.5 M EDTA, 75 μL 20 mg/mL BSA, and […]. Test poisons were prepared in DMSO at such concentrations that the final incubation mixture was 5% DMSO. DNA mix was prepared by dissolving […] of pHOT1 DNA solution (0.25 μg/μL) with 715 μL reaction buffer. Topo I mix was prepared by mixing 14 μL of Topo I solution (2 units/μL) with 266 μL of reaction buffer. Proteinase K solution was prepared fresh as 10 mg/mL in 1% SDS. Gel loading buffer was prepared by dissolving 1 mg bromophenol blue in 100 μL H2O, then adding 900 μL 50% glycerol.
The assay was conducted as follows. DNA mix (14 μL) was added to sample tubes containing 1 μL of test poison solution and stored on ice. Next, 5 μL of Topo I mix was added, the solution was mixed with the pipettor, then incubated with gentle rocking in a 37° C. water bath for 30 minutes. The reactions were stopped via addition of 2 μL of proteinase K solution, and incubation was continued for another 30 minutes, then placed on ice. 2.2 μL of 5 M NaCl and 75 μL of EtOH were added to the tubes, the tubes were vortexed briefly, then placed on dry ice for 1 hour. The DNA was pelleted by centrifugation at 16,000×g for 10 minutes at 4° C. EtOH was removed from each tube using a gel loading pipette tip, and the DNA pellet was resuspended in 18 μL of reaction buffer and 2 μL of gel loading buffer. The samples were vortexed briefly, then spun for 15 seconds in a micro-centrifuge to force all the liquid to the bottom of the tubes. The samples were loaded onto a 1% agarose gel made with 1×TBE containing 2 μg/mL chloroquine. The gels were run at 35 V for 15 hours in 1×TBE. Gels were stained with 0.5 μg/mL ethidium bromide in 1×TBE for 1 hour, then destained for 30 minutes in H2O. Gels were photographed with a digital camera, and the digitized images analyzed using NIH software. IC50 values were determined by comparing supercoiled DNA band density (negative controls containing 5 μL reaction buffer in place of Topo I mix) with the supercoiled DNA bands remaining in the test samples.

HT-29 Colon = assay: In vitro cytotoxicity assay (MTS), HT-29; format: cell-based; conditions: HT-29 human colon tumor cell line, MTS assay 3–5 days; read-out: Growth-Inhibitory Activity IC50 HT-29 Colon
Method: (§1) b.) In vitro Cytotoxicity Assay. 96-Well tissue culture cluster plates were seeded with 100 μL of cell suspension (5×10^3 cells/mL), and incubated overnight for cell anchorage and acclimation. Cells were propagated under sterile conditions in RPMI 1640 or DMEM with 10% fetal bovine serum, 2 mM L-glutamine, and sodium bicarbonate (complete medium), and incubated at 37° C. The test compounds were prepared in DMSO and then diluted in complete media. A range of eight concentrations was used for each test drug to establish cytotoxicity, with eight replicates for each concentration. All dosing was conducted using a Biomek 2000 robotic liquid handler. The plates were incubated at 37° C. with 5% CO2 and 95% relative humidity. The data were analyzed for cytotoxicity using the MTS assay 3–5 days (depending upon the growth rate of the cell lines) after commencement of treatment.
(§2) c.) MTS Assay. A solution of 40 μL of MTS/PES solution (purchased from Promega Corporation) was added to each well, and incubated for one to four hours. The absorbance of formazan in each monolayer was measured at 490 nm on a Coulter microplate reader. The data were processed in a spreadsheet program to provide a dose-response curve, allowing determination of the IC50.

DU-145 Prostate = assay: In vitro cytotoxicity assay (MTS), DU-145; format: cell-based; conditions: DU-145 human prostate tumor cell line, MTS assay 3–5 days; read-out: Growth-Inhibitory Activity IC50 DU-145 Prostate
Method: as §1, §2

OVCAR-3 Ovarian = assay: In vitro cytotoxicity assay (MTS), OVCAR-3; format: cell-based; conditions: OVCAR-3 human ovarian tumor cell line, MTS assay 3–5 days; read-out: Growth-Inhibitory Activity IC50 OVCAR-3 Ovarian
Method: as §1, §2

O=C1NC(=O)c2c1c1c3cc(O)ccc3[nH]c1c1c2c2cc(O)ccc2n1[C@@H]1O[C@H](CO)[C@@H](O)[C@H](O)[C@H]1O [ALS-007, 3,9-dihydroxy-12-(β-D-glucopyranosyl)-6,7,12,13-tetrahydroindolo[2,3-a]pyrrolo[3,4-c]carbazole-5,7-dione, reference compound]
IC50 (Human Topoisomerase I): 20.9 µM
IC50 (HT-29 Colon): 9.96 µM
IC50 (DU-145 Prostate): 0.338 µM
IC50 (OVCAR-3 Ovarian): < 0.01 µM

O=C1NC(=O)c2c1c1c3cc(O)ccc3[nH]c1c1c2c2cc3c(cc2n1[C@@H]1O[C@H](CO)[C@@H](O)[C@H](O)[C@H]1O)OCCO3 [IIa, 2,3-ethylenedioxy-9-hydroxy-13-(β-D-glucopyranosyl)-6,7,12,13-tetrahydroindolo[2,3-a]pyrrolo[3,4-c]carbazole-5,7-dione]
IC50 (Human Topoisomerase I): > 400 µM

O=C1NC(=O)c2c1c1c3cc(O)ccc3[nH]c1c1c2c2cc3c(cc2n1[C@@H]1O[C@H](CO)[C@@H](O)[C@H](O)[C@H]1O)OCO3 [IIb, 2,3-methylenedioxy-9-hydroxy-13-(β-D-glucopyranosyl)-6,7,12,13-tetrahydroindolo[2,3-a]pyrrolo[3,4-c]carbazole-5,7-dione]
IC50 (Human Topoisomerase I): > 400 µM

O=C1NC(=O)c2c1c1c3cc4c(cc3[nH]c1c1c2c2cc(O)ccc2n1[C@@H]1O[C@H](CO)[C@@H](O)[C@H](O)[C@H]1O)OCCO4 [Ia, 2,3-ethylenedioxy-9-hydroxy-12-(β-D-glucopyranosyl)-6,7,12,13-tetrahydroindolo[2,3-a]pyrrolo[3,4-c]carbazole-5,7-dione]
IC50 (Human Topoisomerase I): 5.4 µM
IC50 (HT-29 Colon): > 10 µM
IC50 (DU-145 Prostate): 0.845 µM
IC50 (OVCAR-3 Ovarian): < 0.01 µM

O=C1NC(=O)c2c1c1c3cc4c(cc3[nH]c1c1c2c2cc(O)ccc2n1[C@@H]1O[C@H](CO)[C@@H](O)[C@H](O)[C@H]1O)OCO4 [Ib, 2,3-methylenedioxy-9-hydroxy-12-(β-D-glucopyranosyl)-6,7,12,13-tetrahydroindolo[2,3-a]pyrrolo[3,4-c]carbazole-5,7-dione]
IC50 (Human Topoisomerase I): 3.6 µM
IC50 (HT-29 Colon): > 10 µM
IC50 (DU-145 Prostate): 0.46 µM
IC50 (OVCAR-3 Ovarian): < 0.01 µM

CC1(C)Oc2cc3[nH]c4c(c5c(c6c7cc(O)ccc7n(C7OC(CO)C(O)C(O)C7O)c46)C(=O)NC5=O)c3cc2O1 [Ic, 2,3-isopropylenedioxy-9-hydroxy-12-(β-D-glucopyranosyl)-6,7,12,13-tetrahydroindolo[2,3-a]pyrrolo[3,4-c]carbazole-5,7-dione]
IC50 (Human Topoisomerase I): 8.1 µM
IC50 (HT-29 Colon): > 10 µM
IC50 (DU-145 Prostate): 2.36 µM
IC50 (OVCAR-3 Ovarian): 0.036 µM

CC[C@@]1(O)C(=O)OCc2c1cc1n(c2=O)Cc2cc3c(CN(C)C)c(O)ccc3nc2-1 [Topotecan, reference compound]
IC50 (HT-29 Colon): 0.533 µM
IC50 (DU-145 Prostate): 0.03 µM
IC50 (OVCAR-3 Ovarian): < 0.003 µM

O=C1c2c(c3c4cc(O)ccc4n(C4OC(CO)C(O)C(O)C4O)c3c3[nH]c4cc5c(cc4c23)OCCO5)C(=O)N1CO [compound 9, 2,3-ethylenedioxy-6-hydroxymethyl-9-hydroxy-12-(β-D-glucopyranosyl)-6,7,12,13-tetrahydroindolo[2,3-a]pyrrolo[3,4c]carbazole-5,7-dione]
IC50 (Human Topoisomerase I): 3.9 µM
IC50 (HT-29 Colon): > 10 µM
IC50 (DU-145 Prostate): 0.718 µM
IC50 (OVCAR-3 Ovarian): < 0.01 µM

O=C1c2c(c3c4cc(O)ccc4n([C@@H]4O[C@H](CO)[C@@H](O)[C@H](O)[C@H]4O)c3c3[nH]c4cc5c(cc4c23)OCO5)C(=O)N1CO [compound 16, 2,3-methylenedioxy-6-hydroxymethyl-9-hydroxy-12-(β-D-glucopyranosyl)-6,7,12,13-tetrahydroindolo[2,3-a]pyrrolo[3,4-c]carbazole-5,7-dione]
IC50 (Human Topoisomerase I): 3.6 µM
IC50 (HT-29 Colon): > 10 µM
IC50 (DU-145 Prostate): 0.549 µM
IC50 (OVCAR-3 Ovarian): < 0.01 µM

CC1(C)Oc2cc3[nH]c4c(c5c(c6c7cc(O)ccc7n(C7OC(CO)C(O)C(O)C7O)c46)C(=O)N(CO)C5=O)c3cc2O1 [compound 23, 2,3-isopropylenedioxy-6-hydroxymethyl-9-hydroxy-12-(β-D-glucopyranosyl)-6,7,12,13-tetrahydroindolo[2,3-a]pyrrolo[3,4-c]carbazole-5,7-dione]
IC50 (Human Topoisomerase I): 130 µM
IC50 (HT-29 Colon): > 10 µM
IC50 (DU-145 Prostate): 3.52 µM
IC50 (OVCAR-3 Ovarian): 0.043 µM
